Biological target: Bromodomain-containing protein 4 (Homo sapiens, UniProt O60885)
Experiment: A mixture comprising 100 nM GST-BRD4 (BD1+BD2) and 100 nM biotinylated acetyl-histone H4 (Lys5,8,12,16) peptide was prepared in assay buffer (50 mM HEPES pH 7.4; 25 mM NaCl; 0.05% Tween 20; 0.1% bovine serum albumin (BSA); 10 mM dithiothreitol (DTT)). After adding 6 μl of the mixture to the diluent, 6 μl of the pre-mixed AlphaLISA Glutathione Acceptor Beads and AlphaScreen Streptavidin Donor Beads (PerkinElmer, 10 μg/ml in assay buffer, respectively) was added thereto. The samples were incubated in the dark at room temperature for 30 minutes (shaking at 300 rpm). Then, the signals were measured with PerkinElmer Envision HTS Multilabel Reader using an alpha screen protocol of PerkinElmer. Each plate contained the negative control in which biotinylated acetyl-histone H4 peptide and GST-BRD4 (BD1+BD2) were replaced by assay buffer. In the case of using the software GraphPad Prism for calculation, the negative control point was input as a low standard value. The positive control (probe molecule l-BET762 containing protein/peptide mixture) proceeded to pipetting.

Row | IC50 [nM] | Structure (SMILES)
1 | 91 | COCCOc1ccc2c(c1)nc(NCCCCNC(C)=O)c1nnc(C)n12
2 | 61 | Cc1nnc2c(NCCCCNC(=O)C(C)(C)C)nc3ccc(F)cc3n12
3 | 56 | Cc1ccc2nc(NCCCCNC(=O)C(C)(C)C)c3nnc(C)n3c2c1
4 | 58 | Cc1nnc2c(NCCCCNC(=O)c3ccccc3)nc3ccccc3n12
5 | 56 | Cc1nnc2c(NCCCCNC(=O)c3ccccc3)nc3ccc(NC(=O)C(C)C)cc3n12
6 | 77 | Cc1nnc2c(NCCCCNC(=O)C(C)C)nc3ccc(F)cc3n12
7 | 91 | Cc1nnc2c(NCCCCNC(=O)OC(C)C)nc3c(C(F)(F)F)cc(F)cc3n12

Reference: ChEMBL document CHEMBL5728514, “[1,2,4]Triazolo[4,3-a]quinoxaline derivative, method for preparing same, and pharmaceutical composition for preventing or treating BET protein-related diseases, containing same as active ingredient” (2021)
